Source: patent publication US7745636B2, “Hepatitis C virus inhibitors” (Bristol-Myers Squibb Company, priority 2006, dated 2010)

What follows are compounds tested on HCV 1b-377-neo replicon cells (assay: HCV Replicon assay, HCV 1b-377-neo replicon cells). Conditions: Hepatitis C virus, Table 2, read-out: Range (EC50 against HCV 1b).
Format: cell-based, HCV 1b genotype

First: CCN(CC)C(C)C(=O)N1CCC[C@H]1c1nc(C(F)(F)F)c(-c2ccc(-c3ncc(-c4cnc([C@@H]5CCCN5C(=O)[C@@H](C)N(CC)CC)[nH]4)cn3)cc2)[nH]1 (stereo in doubt) [Example J51, (2R)-1-((2S)-2-(5-(4-(5-(2-((2S)-1-((2R)-2-(diethylamino)propanoyl)-2-pyrrolidinyl)-1H-imidazol-5-yl)-2-pyrimidinyl)phenyl)-4-(trifluoromethyl)-1H-imidazol-2-yl)-1-pyrrolidinyl)-N,N-diethyl-1-oxo-2-propanamine]
Second: COC(=O)N[C@H](C(=O)N1CCC[C@H]1c1ncc(-c2cnc(-c3ccc(-c4[nH]c([C@@H]5CCCN5C(=O)[C@@H](NC(=O)OC)C(C)C)nc4C(F)(F)F)cc3)nc2)[nH]1)C(C)C [Example J48, methyl ((1S)-1-(((2S)-2-(5-(2-(4-(2-((2S)-1-((2S)-2-((methoxycarbonyl)amino)-3-methylbutanoyl)-2-pyrrolidinyl)-4-(trifluoromethyl)-1H-imidazol-5-yl)phenyl)-5-pyrimidinyl)-1H-imidazol-2-yl)-1-pyrrolidinyl)carbonyl)-2-methylpropyl) carbamate]
The EC50 of the first is higher: 1 to 99 nM for the first, 0.001 to 0.999 nM for the second. The second is the more potent here.

First: CN(C)[C@@H](C(=O)N1CCC[C@H]1c1ncc(-c2cnc(-c3ncc(-c4cnc([C@@H]5CCCN5C(=O)[C@@H](c5ccccc5)N(C)C)[nH]4)cn3)nc2)[nH]1)c1ccccc1 [Example 153c-3, (1R,1′R)-2,2′-(2,2′-bipyrimidine-5,5′-diylbis(1H-imidazole-5,2-diyl(2S)-2,1-pyrrolidinediyl))bis(N, N-dimethyl-2-oxo-1-phenylethanamine)]
Second: CN(C)[C@@H](C(=O)N1CCC[C@H]1c1ncc(-c2ccc(-c3ncc(-c4cnc([C@@H]5CCCN5C(=O)[C@@H](c5ccccc5)N(C)C)[nH]4)cn3)cc2)[nH]1)c1ccccc1 [Example 152j-1, (1R)-2-((2S)-2-(5-(2-(4-(2-((2S)-1-((2R)-2-(dimethylamino)-2-phenylacetyl)-2-pyrrolidinyl)-1H-imidazol-5-yl)phenyl)-5-pyrimidinyl)-1H-imidazol-2-yl)-1-pyrrolidinyl)-N,N-dimethyl-2-oxo-1-phenylethanamine]
The EC50 of the first is higher: 1000 to 10000 nM for the first, 1 to 99 nM for the second. The second is the more potent here.

First: COC(=O)N[C@H](C(=O)N1CCC[C@H]1c1nc(-c2cnc(-c3ccc(-c4cnc([C@@H]5CCCN5C(=O)[C@@H](NC(=O)OC)C5CC5)[nH]4)cc3)nc2)c[nH]1)C1CC1 [Example D75, methyl ((1S)-1-cyclopropyl-2-((2S)-2-(5-(2-(4-(2-((2S)-1-((2S)-2-cyclopropyl-2-((methoxycarbonyl)amino)acetyl)-2-pyrrolidinyl)-1H-imidazol-5-yl)phenyl)-5-pyrimidinyl)-1H-imidazol-2-yl)-1-pyrrolidinyl)-2-oxoethyl)carbamate]
Second: COC(=O)N[C@H](C(=O)N1CCC[C@H]1c1ncc(-c2ccc(-c3ccc(-c4cnc([C@@H]5CCCN5C(=O)[C@@H](NC(=O)OC)C(C)C)[nH]4)cc3C(=O)O)cc2)[nH]1)C(C)C [Example M114, 4,4′-bis(2-((2S)-1-(N-(methoxycarbonyl)-L-valyl)-2-pyrrolidinyl)-1H-imidazol-5-yl)-2-biphenylcarboxylic acid]
The EC50 of the first is lower: 0.001 to 0.999 nM for the first, 1000 to 10000 nM for the second.

Compared with `O=C([C@@H](c1ccccc1)N1CCCCC1)N1CCC[C@H]1c1ncc(-c2ccc(-c3ncc(-c4cnc([C@@H]5CCCN5C(=O)[C@@H](c5ccccc5)N5CCCCC5)[nH]4)cn3)cc2)[nH]1` [Example 152j-5, 5-(2-((2S)-1-((2R)-2-phenyl-2-(1-piperidinyl)acetyl)-2-pyrrolidinyl)-1H-imidazol-5-yl)-2-(4-(2-((2S)-1-((2R)-2-phenyl-2-(1-piperidinyl)acetyl)-2-pyrrolidinyl)-1H-imidazol-4-yl)phenyl)pyrimidine], `C[C@@H](c1ncc(-c2ccc(-c3ncc(-c4cnc([C@@H]5CCCN5C(=O)[C@@H](c5ccccc5)N(C)C)[nH]4)cn3)cc2)[nH]1)N(C)C(=O)[C@@H](c1ccccc1)N(C)C` [Example 152j-20, (2R)-2-(dimethylamino)-N-((1S)-1-(5-(4-(5-(2-((2S)-1-((2R)-2-(dimethylamino)-2-phenylacetyl)-2-pyrrolidinyl)-1H-imidazol-5-yl)-2-pyrimidinyl)phenyl)-1H-imidaozl-2-yl)ethyl)-N-methyl-2-phenylacetamide] is higher in EC50: 0.001 to 0.999 nM for the first, 1 to 99 nM for the second. The first is the more potent here.

`COC(=O)N[C@H](C(=O)N1CCC[C@H]1c1ncc(-c2ccc(-c3ccc(-c4cnc([C@@H]5CCCN5C(=O)[C@@H](NC(=NC#N)N(C)C)C(C)C)[nH]4)cc3)cc2)[nH]1)C(C)C` [cj-17, methyl ((1S)-1-(((2S)-2-(5-(4′-(2-((2S)-1-(N-(cyano(dimethyl)carbamimidoyl)-L-valyl)-2-pyrrolidinyl)-1H-imidazol-5-yl)-4-biphenylyl)-1H-imidazol-2-yl)-1-pyrrolidinyl)carbonyl)-2-methylpropyl)carbamate] and `COC(=O)N[C@H](C(=O)N1CCC[C@H]1c1ncc(-c2ccc(-c3ccc(-c4cnc([C@@H]5CCCN5C(=O)[C@@H](Nc5ncccn5)C(C)C)[nH]4)cc3)cc2)[nH]1)C(C)C` [cj-11, methyl ((1S)-2-methyl-1-(((2S)-2-(5-(4′-(2-((2S)-1-(N-2-pyrimidinyl-L-valyl)-2-pyrrolidinyl)-1H-imidazol-5-yl)-4-biphenylyl)-1H-imidazol-2-yl)-1-pyrrolidinyl)carbonyl)propyl)carbamate] fall in the same range of EC50: 0.001 to 0.999 nM for the first, 0.001 to 0.999 nM for the second.

`COC(=O)N[C@@H](C(=O)N(C)[C@@H](C)c1ncc(-c2ccc(-c3ccc(-c4cnc([C@H](C)N(C)C(=O)[C@H](NC(=O)OC)c5ccccc5)[nH]4)cc3)cc2)[nH]1)c1ccccc1` [Example 24-18-1, dimethyl (4,4′-biphenyldiylbis (1H-imidazole-5,2-diyl(1S)-1,1-ethanediyl(methyl-imino)((1R)-2-oxo-1-phenyl-2,1-ethanediyl))) biscarbamate] and `COC(=O)N[C@H](C(=O)N[C@H](c1ncc(-c2ccc(-c3ccc(-c4cnc([C@@H]5CCCN5C(=O)[C@@H](NC(=O)OC)C(C)C)[nH]4)cc3)cc2)[nH]1)C(C)OCc1ccccc1)C(C)C` (stereo partly shown) [Example R34] fall in the same range of EC50: 0.001 to 0.999 nM for the first, 0.001 to 0.999 nM for the second.

Compound `COC(=O)N[C@@H](C(=O)N1CCC[C@H]1c1ncc(-c2ccc(-c3ccc(-c4cnc([C@@H]5CCCN5C(=O)[C@@H]5CCCO5)[nH]4)cc3C)cc2)[nH]1)c1ccccc1` [Example 128, methyl ((1R)-2-((2S)-2-(5-(2′-methyl-4′-(2-((2S)-1-((2S)-tetrahydro-2-furanylcarbonyl)-2-pyrrolidinyl)-1H-imidazol-5-yl)-4-biphenylyl)-1H-imidazol-2-yl)-1-pyrrolidinyl)-2-oxo-1-phenylethyl)carbamate] has an EC50 of 0.001 to 0.999 nM.

Same assay, conditions: Table 2, read-out: Range (EC50 against HCV 1b)

First: COC(=O)N[C@H](C(=O)N1CCC[C@H]1c1ncc(-c2ccc(-c3ccc(-c4cnc([C@@H]5CCCN5C(=O)CN(C(C)C)C(C)C)[nH]4)cc3)cc2)[nH]1)C(C)C [LS26]
Second: C=CCCOC(=O)N[C@H](C(=O)N1CCC[C@H]1c1ncc(-c2ccc(-c3ccc(-c4cnc([C@@H]5CCCN5C(=O)[C@@H](NC(=O)OCCC=C)C(C)C)[nH]4)cc3)cc2)[nH]1)C(C)C [LS16]
The EC50 of the first is lower: 0.001 to 0.999 nM for the first, 1 to 99 nM for the second.

`CC(C)[C@H](NC(=O)OCCF)C(=O)O` [OL-4] gave an EC50 of 0.001 to 0.999 nM.
